Tests used:
[1] = tested on: RPMI-8226 (Leukemia); assay: NCI DTP tumor cell line screen (SRB), RPMI-8226
Method: (§1) For a typical screening experiment, cells are inoculated into 96 well microtiter plates in 100 μL at plating densities ranging from 5,000 to 40,000 cells/well depending on the doubling time of individual cell lines. After cell inoculation, the microtiter plates are incubated at 37° C., 5% CO2, 95% air and 100% relative humidity for 24 h prior to addition of experimental drugs.
(§2) After 24 h, two plates of each cell line are fixed in situ with TCA, to represent a measurement of the cell population for each cell line at the time of drug addition (Tz). Experimental drugs are solubilized in dimethyl sulfoxide at 400-fold the desired final maximum test concentration and stored frozen prior to use. At the time of drug addition, an aliquot of frozen concentrate is thawed and diluted to twice the desired final maximum test concentration with complete medium containing 50 μg/ml gentamicin. Additional four, 10-fold or ½ log serial dilutions are made to provide a total of five drug concentrations plus control. Aliquots of 100 μl of these different drug dilutions are added to the appropriate microtiter wells already containing 100 μl of medium, resulting in the required final drug concentrations.
(§3) Following drug addition, the plates are incubated for an additional 48 h at 37° C., 5% CO2, 95% air, and 100% relative humidity. For adherent cells, the assay is terminated by the addition of cold TCA. Cells are fixed in situ by the gentle addition of 50 μl of cold 50% (w/v) TCA (final concentration, 10% TCA) and incubated for 60 minutes at 4° C. The supernatant is discarded, and the plates are washed five times with tap water and air dried. Sulforhodamine B (SRB) solution (1001) at 0.4% (w/v) in 1% acetic acid is added to each well, and plates are incubated for 10 minutes at room temperature. After staining, unbound dye is removed by washing five times with 1% acetic acid and the plates are air dried. Bound stain is subsequently solubilized with 10 mM trizma base, and the absorbance is read on an automated plate reader at a wavelength of 515 nm. For suspension cells, the methodology is the same except that the assay is terminated by fixing settled cells at the bottom of the wells by gently adding 50 μl of 80% TCA (final concentration, 16% TCA). Using the seven absorbance measurements [time zero, (Tz), control growth, (C), and test growth in the presence of drug at the five concentration levels (Ti)], the percentage growth is calculated at each of the drug concentrations levels. Percentage growth inhibition is calculated as: [(Ti−Tz)/(C−Tz)]×100 for concentrations for which Ti>/=Tz [(Ti−Tz)/Tz]×100 for concentrations for which Ti<Tz
(§4) Three dose response parameters are calculated for each experimental agent. […] The drug concentration resulting in total growth inhibition (TGI) is calculated from Ti=Tz. […] Values are calculated for each of these three parameters if the level of activity is reached; however, if the effect is not reached or is exceeded, the value for that parameter is expressed as greater or less than the maximum or minimum concentration tested.

[2] = tested on: PC-3 cells; assay: Cell viability analysis, MTT assay in PC-3 cells; format: cell-based, human; conditions: inducing apoptotic death in PC-3 cells / PC-3 cell viability; read-out: IC50 PC-3
Method: Cell Culture PC-3 (p53−/−) human androgen-non-responsive prostate cancer cells were purchased from the American […] (Manassas, Va.). Cells were cultured in RPMI 1640 medium (Gibco, Grand Island, N.Y.) supplemented with 10% fetal bovine serum (FBS; Gibco) at 37° C. in a humidified incubator containing 5% CO2.
Controls received DMSO vehicle at a concentration equal to that in drug-treated cells. The medium was removed, replaced by 200 μl of 0.5 mg/ml of MTT in 10% FBS-containing RPMI-1640 medium, and cells were incubated in the CO2 incubator at 37° C. for 2 h. Supernatants were removed from the wells, and the reduced MTT dye was solubilized in 200 μL/well DMSO. Absorbance at 570 nm was determined on a plate reader.

[3] = tested on: PC-3 cells; assay: Apoptosis analysis in PC-3 cells (DNA fragmentation ELISA, PARP cleavage); format: cell-based, human; conditions: 1% FBS-containing medium
Method: Apoptosis analysis Two methods were used to assess drug-induced apoptotic cell death: detection of DNA fragmentation by the Cell Death Detection ELISA kit (Roche Diagnostics. Mannheim, Germany) and Western blot analysis of poly-(ADP-ribose)polymerase (PARP) cleavage. […] In brief, 4×10^5 PC-3 cells were cultured in a T-25 flask for 24 h before treatment. Cells were treated with the DMSO vehicle or the test agent at the indicated concentrations for 6-24 h, collected, and cell lysates equivalent to 2×10^3 PC-3 cells were used in the ELISA. For the PARP cleavage assay, drug-treated cells were collected 4-8 h post-treatment, washed with ice-cold PBS, and resuspended in lysis buffer containing 20 mM Tris-HCl, pH 8, 137 mM NaCl, 1 mM CaCl2, 10% glycerol, 1% Nonidet P-40, 0.5% deoxycholate, 0.1% SDS, 100 μM 4-(2-aminoethyl)benzenesulfonyl fluoride, leupeptin at 10 μg/mL, and aprotinin at 10 μg/mL. Soluble cell lysates were collected after centrifugation at 10,000 g for 5 min. Equivalent amounts of proteins (60-100 μg) from each lysate were resolved in 8% SDS-polyacrylamide gels. Bands were transferred to nitrocellulose membranes, and analyzed by immunoblotting with anti-PARP antibody.

[4] = tested on: phospho-Akt; assay: Western blot analysis of Akt and phospho-Akt in PC-3 cells; format: cell-based, human; conditions: even at 1 μM
Method: Immunoblotting. The general procedure for the Western blot analysis of Akt and phospho-Akt is described as follows. Cells were washed in PBS, resuspended in SDS sample buffer sonicated by an ultrasonic sonicator for 5 see, and boiled for 5 min. After brief centrifugation, equivalent protein concentrations from the soluble fractions were resolved in 10% SDS-polyacrylamide gels on a Minigel apparatus, and transferred to a nitrocellulose membrane using a semi-dry transfer cell. The transblotted membrane was washed three times with TBS containing 0.05% Tween 20 (TBST). After blocking with TBST containing 5% nonfat milk for 60 min., the membrane was incubated with the primary antibody at 1:1,000 dilution in TBST-5% low fat milk at 4° C. for 12 h, and was then washed three times with TBST. The membrane was probed with goat anti-rabbit IgG-HRP conjugates (1:1,000) for 1 h at room temperature, and was washed with TBST three times. The immunoblots were visualized by enhanced chemiluminescence.

[5] = target: recombinant PDK-1 (Homo sapiens (Human), UniProt O15530); assay: PDK-1 kinase activity (PDK-1 kinase assay kit, cell-free); format: biochemical
Method: PDK-1 kinase activity This in vitro assay was performed using a PDK-1 kinase assay kit (Upstate, Lake Placid, N.Y.) according to the vendor's instructions. This cell-free assay is based on the ability of recombinant PDK-1, in the presence of DMSO vehicle or the test agent, to activate its downstream kinase serum- and glucocorticoid-regulated kinase (SGK.) which, in turn, phosphorylates the Akt/SGK-specific peptide substrate RPRAATF with [γ-^32]-ATP. […] The reported values represent the means of two independent determinations.

[6] = tested on: SF-295 (CNS Cancer); assay: NCI DTP tumor cell line screen (SRB), SF-295
Method: as §1, §2, §3, §4

[7] = tested on: SF-268 (CNS Cancer); assay: NCI DTP tumor cell line screen (SRB), SF-268
Method: as §1, §2, §3, §4

[8] = tested on: SNB-19 (CNS Cancer); assay: NCI DTP tumor cell line screen (SRB), SNB-19
Method: as §1, §2, §3, §4

[9] = tested on: BT-549 (Breast Cancer); assay: NCI DTP tumor cell line screen (SRB), BT-549
Method: as §1, §2, §3, §4

[10] = tested on: U251 (CNS Cancer); assay: NCI DTP tumor cell line screen (SRB), U251
Method: as §1, §2, §3, §4

Chain of recombinant PDK-1 (O15530 whole entry, looked up): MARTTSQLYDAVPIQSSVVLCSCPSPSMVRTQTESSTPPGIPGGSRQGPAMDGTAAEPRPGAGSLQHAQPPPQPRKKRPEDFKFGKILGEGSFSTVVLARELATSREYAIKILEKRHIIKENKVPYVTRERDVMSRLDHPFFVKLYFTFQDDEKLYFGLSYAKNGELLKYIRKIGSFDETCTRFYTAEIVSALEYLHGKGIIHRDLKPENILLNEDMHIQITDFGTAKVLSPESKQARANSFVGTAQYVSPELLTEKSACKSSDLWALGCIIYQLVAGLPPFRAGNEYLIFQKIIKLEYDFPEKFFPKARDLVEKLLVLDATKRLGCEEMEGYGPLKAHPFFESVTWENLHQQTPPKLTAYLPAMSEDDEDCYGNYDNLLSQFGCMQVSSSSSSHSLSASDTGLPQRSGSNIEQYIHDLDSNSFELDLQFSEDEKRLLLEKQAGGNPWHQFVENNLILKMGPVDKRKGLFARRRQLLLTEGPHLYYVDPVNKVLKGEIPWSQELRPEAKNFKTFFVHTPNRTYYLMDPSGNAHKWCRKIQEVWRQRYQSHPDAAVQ

## 4-[5-(2-Phenanthrenyl)-3-(trifluoromethyl)-1H-pyrazol-1-yl]-phenyl -guanidine [Compound 71]
[1]
  GI50: 1030 nM
  TGI: 2.25E−06
[1]; Log10 Concentration −4.0
  Percent Growth: −47%
[1]; Log10 Concentration −5.0
  Percent Growth: −95%
[1]; Log10 Concentration −6.0
  Percent Growth: 52%
[1]; Log10 Concentration −7.0
  Percent Growth: 65%
[1]; Log10 Concentration −8.0
  Percent Growth: 58%
[2]
  IC50: 3000 nM
[3]
  apoptotic death in PC-3 cells (DNA fragmentation and PARP cleavage): induced apoptotic death
[4]
  phospho-Akt level: substantial decrease
[5]
  increase in PDK-1 inhibition potency over compound 59: five-fold

## NCC(=O)Nc1ccc(-n2nc(C(F)(F)F)cc2-c2ccc3c(ccc4ccccc43)c2)cc1 [Compound 70, 2-Amino-N-{4-[5-(2-phenanthrenyl)-3-(trifluoromethyl)-1H-pyrazol-1-yl]-phenyl}-acetamide]
[1]
  TGI: 2.84E−06
[1]; Log10 Concentration −4.0
  Mean Optical Densities: 0.229
[1]; Log10 Concentration −5.0
  Mean Optical Densities: 0.164
  Percent Growth: −51%
[1]; Log10 Concentration −6.0
  Mean Optical Densities: 0.547
  Percent Growth: 42%
[1]; Log10 Concentration −7.0
  Mean Optical Densities: 0.701
  Percent Growth: 72%
[1]; Log10 Concentration −8.0
  Mean Optical Densities: 0.766
  Percent Growth: 85%
[6]
  TGI: 3.71E−06
[6]; Log10 Concentration −4.0
  Mean Optical Densities: 0.287
[6]; Log10 Concentration −5.0
  Mean Optical Densities: 0.225
  Percent Growth: −47%
[6]; Log10 Concentration −6.0
  Mean Optical Densities: 0.915
  Percent Growth: 62%
[6]; Log10 Concentration −7.0
  Mean Optical Densities: 1.190
  Percent Growth: 96%
[6]; Log10 Concentration −8.0
  Mean Optical Densities: 1.173
  Percent Growth: 94%
[7]
  TGI: 4.16E−06
[7]; Log10 Concentration −4.0
  Mean Optical Densities: 0.280
[7]; Log10 Concentration −5.0
  Mean Optical Densities: 0.252
  Percent Growth: −33%
[7]; Log10 Concentration −6.0
  Mean Optical Densities: 0.789
  Percent Growth: 54%
[7]; Log10 Concentration −7.0
  Mean Optical Densities: 0.930
  Percent Growth: 72%
[7]; Log10 Concentration −8.0
  Mean Optical Densities: 1.016
  Percent Growth: 84%
[8]
  TGI: 3.15E−06
[8]; Log10 Concentration −4.0
  Mean Optical Densities: 0.324
[8]; Log10 Concentration −5.0
  Mean Optical Densities: 0.219
  Percent Growth: −59%
[8]; Log10 Concentration −6.0
  Mean Optical Densities: 1.230
  Percent Growth: 59%
[8]; Log10 Concentration −7.0
  Mean Optical Densities: 1.655
  Percent Growth: 94%
[8]; Log10 Concentration −8.0
  Mean Optical Densities: 1.562
  Percent Growth: 87%
[9]
  TGI: 2.95E−06
[9]; Log10 Concentration −5.0
  Mean Optical Densities: 0.143
  Percent Growth: −71%
[9]; Log10 Concentration −6.0
  Mean Optical Densities: 0.785
  Percent Growth: 63%
[9]; Log10 Concentration −7.0
  Mean Optical Densities: 0.891
  Percent Growth: 86%
[9]; Log10 Concentration −8.0
  Mean Optical Densities: 0.912
  Percent Growth: 90%
[10]
  TGI: 2.64E−06
[10]; Log10 Concentration −4.0
  Mean Optical Densities: 0.320
[10]; Log10 Concentration −5.0
  Mean Optical Densities: 0.144
  Percent Growth: −63%
[10]; Log10 Concentration −6.0
  Mean Optical Densities: 0.810
  Percent Growth: 46%
[10]; Log10 Concentration −7.0
  Mean Optical Densities: 1.139
  Percent Growth: 82%
[10]; Log10 Concentration −8.0
  Mean Optical Densities: 1.298
  Percent Growth: 100%

From US8741944B2, “Anti-infective agents against intracellular pathogens” (priority 2007, dated 2014)
